# In publication PMC10137179, “Assessment of Covalently Binding Warhead Compounds in the Validation of the Cytomegalovirus Nuclear Egress Complex as an Antiviral Target” (Cells, 2023):
# Target: T1, pUL50-HA + pUL53-Flag (Human cytomegalovirus, UniProt P16791)
# T1 construct: expressed in transfected cells; host or cells: 293T
# Assay: Coimmunoprecipitation (CoIP) of pUL50-HA and pUL53-Flag from cotransfected 293T cells
# Type: binding, HCMV
# Conditions: serial concentrations, mostly at 20–40 µM; added 24 h p.t. or after cell lysis
# Procedure: For CoIP analysis, 293T cells were seeded in 10 cm dishes with a density of 5 × 10^6 cells and used for transient transfection with expression plasmids. Then, 2–3 days post-transfection (d p.t.), CoIP was performed as described previously, using mAb-HA (H9658, Sigma-Aldrich, St. Louis, MO, USA). In brief, cells were lysed in 500 μL CoIP buffer (50 mM Tris/HCl (pH 8.0), 150 mM NaCl, 5 mM EDTA, 0.5% NP-40, 1 mM PMSF, 2 μg/mL aprotinin, 2 μg/mL leupeptin and 2 μg/mL pepstatin). Subsequently, total lysates were incubated with antibody-coated (2 μL of tag-specific or control antibodies) Dynabeads® Protein A (30 μL per sample; Life Technologies, Carlsbad, CA, USA) for 2 h at 4 °C under rotation. The precipitates were washed five times with 1 mL of CoIP buffer. CoIP samples and lysate controls were taken prior to the addition of the CoIP antibody. SDS-PAGE and standard Western blot analysis of cell lysates was performed using equal protein amounts as described previously. […]
# In both cases, total lysates were prepared at 48 h p.t., and the CoIP analysis was performed under continued drug treatment (Figure S3). The protein applied as the basis for IP (using tag-specific mAb-HA) was pUL50-HA, and pUL53-Flag was detected as the CoIP partner. […]
# T1 sequence (P16791 whole entry): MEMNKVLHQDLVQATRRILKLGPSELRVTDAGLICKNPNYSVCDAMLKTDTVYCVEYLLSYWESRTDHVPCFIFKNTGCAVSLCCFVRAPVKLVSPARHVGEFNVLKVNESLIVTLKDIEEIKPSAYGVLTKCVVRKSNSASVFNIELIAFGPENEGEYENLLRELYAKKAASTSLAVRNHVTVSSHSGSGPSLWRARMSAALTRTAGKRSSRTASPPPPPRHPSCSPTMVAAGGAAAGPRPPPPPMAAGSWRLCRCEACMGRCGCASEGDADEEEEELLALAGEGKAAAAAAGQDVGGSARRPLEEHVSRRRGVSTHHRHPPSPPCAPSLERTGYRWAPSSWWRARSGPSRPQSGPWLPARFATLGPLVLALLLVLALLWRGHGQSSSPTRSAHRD
structure (smiles),measurement,value
C=CC(=O)N1CCC[C@@H](n2nc(-c3ccc(Oc4ccccc4)cc3)c3c(N)ncnc32)C1 [ibrutinib],coimmunoprecipitated pUL53-Flag (in words),trend of a reduction in coimmunoprecipitated pUL53-Flag
